Entries after “also recorded” stand apart in the source; their conditions may differ. Like-named read-outs stand apart in the source and are kept apart here.
How the values were obtained:
[1] = target: T1, SMARCA2 BD (Homo sapiens, UniProt P51531); assay: Isothermal titration calorimetry (ITC); assay type: binding
T1 construct: Human SMARCA2 and SMARCA4 BD plasmids bearing an N-terminal His tag and TEV protease site; His tag with TEV site (N, cleaved yes); 73250; host or cells: E. coli BL21(DE3)
Experimental: (§1) Proteins used for crystallization and for ITC. […] Cells were resuspended in buffer A (50 mM Tris-HCl pH 7.5, 300 mM NaCl, 10% glycerol, 25 mM imidazole, 5 mM β-mercaptoethanol and protease inhibitors) and lysed by sonication. The cleared lysate was incubated with Ni-NTA resin (Qiagen) and washed with buffer A containing 0.5 M NaCl. Proteins were eluted with 250 mM imidazole, dialysed overnight in the presence of His-tagged TEV protease against buffer A containing no imidazole and incubated with Ni-NTA resin to remove His-tagged species. Proteins were further purified on a Superdex 75 10/300 (GE Healthcare) column in 50 mM Hepes pH 7.5, 150 mM NaCl, 0.5 mM dithiothreitol (DTT). Proteins were concentrated to >20 mg ml^−1 on a Centricon device (Millipore) and used for ITC, TSA and crystallization experiments. […] Expression and purification were performed as above, except that buffer A was replaced by buffer B (50 mM Hepes pH 7.5, 500 mM NaCl, 5% glycerol, 5 mM imidazole and protease inhibitors) and gel filtration was performed in 10 mM Hepes pH 7.5, 500 mM NaCl and 5% glycerol.
(§2) Calorimetric experiments were performed on a NanoITC calorimeter (TA Instruments) at 25 °C while stirring at 250 r.p.m. All proteins were buffer exchanged by gel filtration into 50 mM Hepes pH 7.5, 150 mM NaCl, 0.5 mM DTT, except for SMARCA2 and SMARCA4A BDs, which were exchanged into 10 mM Hepes pH 7.5, 500 mM NaCl and 5% glycerol. […] Titrations consisted of an initial injection of 1.5 μl followed by 19 identical injections of 2.5 μl made at time intervals of 5 min. ITC data were corrected for the heat of dilution of injectant into buffer and analysed with software provided by the manufacturer using a single binding site model. The first data point was excluded from the analysis. Thermodynamic parameters determined from the ITC data are summarized in Supplementary Table 1.

[2] = target: T2, SMARCA4 BD (Homo sapiens, UniProt P51532); assay: Isothermal titration calorimetry (ITC); assay type: binding
T2 construct: Human SMARCA2 and SMARCA4 BD plasmids bearing an N-terminal His tag and TEV protease site; His tag with TEV site (N, cleaved yes); 74664; host or cells: E. coli BL21(DE3)
Experimental: as §1, §2

[3] = target: T3, CaBdf1 BD1 (Candida albicans, UniProt Q5A4W8); assay: Isothermal titration calorimetry (ITC); assay type: binding
T3 construct: made in house; host or cells: E. coli BL21(DE3)
Experimental: as §1, §2

[4] = target: T4, CaBdf1 BD2 (Candida albicans, UniProt Q5A4W8); assay: HTRF assay, inhibition of BD binding to H4ac4 peptide; set-up: made in house; host or cells: E. coli BL21(DE3)
Target sequence in this assay (Q5A4W8 361-501): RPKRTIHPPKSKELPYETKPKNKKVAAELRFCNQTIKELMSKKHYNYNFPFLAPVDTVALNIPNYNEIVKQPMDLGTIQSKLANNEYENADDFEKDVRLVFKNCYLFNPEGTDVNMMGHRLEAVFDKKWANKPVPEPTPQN

[5] = target: T4, CaBdf1 BD2; assay: Isothermal titration calorimetry (ITC); assay type: binding; set-up: His tag with TEV site (N, cleaved yes); made in house; host or cells: E. coli BL21(DE3)
Experimental: as §1, §2
Target sequence in this assay (Q5A4W8 386-491): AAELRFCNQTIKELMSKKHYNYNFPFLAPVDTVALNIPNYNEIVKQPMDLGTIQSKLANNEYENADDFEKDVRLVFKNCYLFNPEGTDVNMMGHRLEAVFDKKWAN

[6] = target: T3, CaBdf1 BD1; assay type: binding; conditions: CaBdf1 BD1 WT; for Peptide array signal, raw data, Left: left replicate array; for Peptide array signal, raw data, Rigt: right replicate array
Experimental: (§3) In short, arrays were blocked and incubated with 1 μM of purified CaBdf1 BD1 or BD2. Arrays were incubated with recombinant BDs for 2 h at 4 °C in binding buffer (Tris-HCl 50 mM pH 7.4, NP-40 0.1%, NaCl 150 mM, glycerol 10%). […] Assays were performed in duplicate.

[7] = target: T5, human Brd4 BD1 (Homo sapiens, UniProt O60885); assay: HTRF assay, inhibition of BD binding to H4ac4 peptide; set-up: human Brd4 BD1 (residues 22–204); His tag with TEV site (N, cleaved yes); made in house; host or cells: E. coli BL21(DE3)
[8] = target: T4, CaBdf1 BD2; assay type: binding; set-up: made in house; host or cells: E. coli BL21(DE3); conditions: CaBdf1 BD2 WT; for Peptide array signal, raw data, Left: left replicate array; for Peptide array signal, raw data, Rigt: right replicate array
Experimental: as §3
Target sequence in this assay (Q5A4W8 361-501): as the sequence (Q5A4W8 361-501) above

[9] = target: T5, human Brd4 BD1; assay: Isothermal titration calorimetry (ITC); assay type: binding; set-up: human Brd4 BD1 (residues 22–204); His tag with TEV site (N, cleaved yes); made in house; host or cells: E. coli BL21(DE3)
Experimental: as §1, §2

[10] = test system: C. albicans; assay: C. albicans growth assay in liquid media; assay type: cell-based; conditions: for antifungal activity against mutant strains in which either BD1 or BD2 was inactivated (in words): liquid media, WT allele repressed
Experimental: Growth on liquid media. C. albicans strains were grown at 30 °C in SC medium to an OD600 of 0.5–0.8. For the evaluation of growth defects related to Bdf1 mutations, log-phase growing cells were counted using a Neubauer chamber and diluted in liquid media to a final concentration of 5,400 cells per ml per well in a sterile 96-well plate. Dox (50 μg ml^−1) or methionine (5 mM)/cysteine (0.25 mM) were added to the media if required. Plates were incubated at 30 °C and OD600 was measured using a Multiskan FC Microplate Photometer (Thermo Fisher). For the evaluation of chemical compounds, strains were grown in SC medium supplemented with 50 μg ml^−1 Dox or 5 mM methionine/0.25 mM cysteine 24 h before counting and then seeded in 96-well plates at the same concentration as mentioned above, with or without chemical compounds. Statistical tests were performed using two-sided Welch t-tests.

[11] = test system: 32 representative human (BET and non-BET) BDs; assay: BROMOscan profiling (DiscoverX); assay type: binding; conditions: 10 μM; 35% of control used as cutoff for significant inhibition
Experimental: (§4) BROMOscan profiling was performed by DiscoverX (Fremont, CA, USA). […] Ligand-loading densities were optimized as described.

[12] = target: T1, SMARCA2 BD; assay: BROMOscan profiling (DiscoverX); assay type: binding; conditions: as read by reviewer from the BROMOscan data
Experimental: as §4

[13] = target: T5, human Brd4 BD1; assay: BROMOscan profiling (DiscoverX); assay type: binding; set-up: purchased DiscoverX; host or cells: T7 phage grown in an E. coli host derived from BL21; conditions: 10 μM; as read by reviewer from the BROMOscan data
Experimental: as §4

[14] = target: T6, CaBdf1 BD1 Y248F (Candida albicans, UniProt Q5A4W8, Y248F); assay: Histone peptide microarray binding, YF mutant; set-up: species or system C. albicans; conditions: CaBdf1 BD1 YF mutant; for Peptide array signal, raw data, Left: left replicate array; for Peptide array signal, raw data, Right: right replicate array
T6 construct: made in house; host or cells: E. coli BL21(DE3), inferred from the wild-type GST construct
Experimental: as §3, with “duplicate. Images were acquired on a Bio-Rad ChemiDoc XRS Imaging machine and data were quantified using the array analyser software provided by Active Motif.” for “duplicate.”

[15] = target: T7, CaBdf1 BD2 Y425F (Candida albicans, UniProt Q5A4W8, Y425F); assay: Histone peptide microarray binding, YF mutant; set-up: species or system C. albicans; conditions: CaBdf1 BD2 YF mutant; for Peptide array signal, raw data, Left: left replicate array; for Peptide array signal, raw data, Right: right replicate array
T7 construct: made in house; host or cells: E. coli BL21(DE3), inferred from the wild-type GST construct
Experimental: as §3, with “duplicate. Images were acquired on a Bio-Rad ChemiDoc XRS Imaging machine and data were quantified using the array analyser software provided by Active Motif.” for “duplicate.”

[16] = target: T8, human Brd4 BD2 (Homo sapiens, UniProt O60885); assay: HTRF assay, inhibition of BD binding to H4ac4 peptide
T8 construct: GST-tagged human Brd4 BD2 (residues 349–460) was purchased from Reaction Biology Corp; purchased Reaction Biology Corp

[17] = target: T3, CaBdf1 BD1; assay: as above; set-up: species or system C. albicans; conditions: for IC50: H4ac4 peptide, read-out: IC50

T3 sequence (Q5A4W8 193-327): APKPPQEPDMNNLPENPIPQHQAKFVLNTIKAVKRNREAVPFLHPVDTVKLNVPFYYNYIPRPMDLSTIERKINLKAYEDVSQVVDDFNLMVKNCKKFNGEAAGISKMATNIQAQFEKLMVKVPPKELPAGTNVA
T2 sequence (P51532 1453-1564 limits assumed): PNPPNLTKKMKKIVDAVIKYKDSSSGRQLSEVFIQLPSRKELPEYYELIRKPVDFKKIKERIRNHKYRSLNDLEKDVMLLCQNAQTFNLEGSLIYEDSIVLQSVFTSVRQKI
T6 sequence (Q5A4W8 193-327 Y248F): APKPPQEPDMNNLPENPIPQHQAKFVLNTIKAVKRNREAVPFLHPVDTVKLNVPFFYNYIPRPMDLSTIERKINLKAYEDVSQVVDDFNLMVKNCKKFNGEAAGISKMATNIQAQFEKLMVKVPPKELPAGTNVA
T7 sequence (Q5A4W8 361-501 Y425F): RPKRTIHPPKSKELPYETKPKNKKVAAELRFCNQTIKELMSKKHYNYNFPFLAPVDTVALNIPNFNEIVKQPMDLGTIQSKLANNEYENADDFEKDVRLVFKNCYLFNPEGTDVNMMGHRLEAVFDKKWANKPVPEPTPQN
T1 sequence (P51531 1378-1506 limits assumed): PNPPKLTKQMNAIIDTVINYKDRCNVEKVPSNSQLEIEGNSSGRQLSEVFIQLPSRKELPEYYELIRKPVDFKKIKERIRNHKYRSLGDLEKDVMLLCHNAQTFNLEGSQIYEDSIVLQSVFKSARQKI

Compound: O=C1c2ccccc2Sc2cc(-c3noc(-c4cnccn4)n3)ccc2N1C1CC1 [Compound 1]
- binding to SMARCA2 BD (in words) [1]: no detectable binding; also recorded: did not detectably bind
- binding to SMARCA4 BD (in words) [2]: no detectable binding; also recorded: did not detectably bind
- N (stoichiometry) ([3]; ITC, 25 °C): 0.91 ± 0.06
- TΔS ([3]; ITC, 25 °C): 4.885 kcal/mol
- ΔH ([3]; ITC, 25 °C): -2.34 ± 0.621 kcal/mol
- inhibition of CaBdf1 BD2 (in words) ([4]; HTRF): no or only modest binding and inhibition
- binding to CaBdf1 BD2 (in words) ([5]; ITC): no or only modest binding and inhibition
- Peptide array signal, Normalized (0 to 100%), Average [6]: 0%
- Peptide array signal, raw data, Left [6]: 0
- Peptide array signal, raw data, Rigt [6]: 0.003741
- IC50 ([7]; HTRF, H4ac4 peptide): ~40 µM
- inhibition of Brd4 BD1 (in words) ([7]; HTRF, highest concentration 20 μM): no or only modest binding and inhibition
- Peptide array signal, Normalized (0 to 100%), Average [8]: 0.259%
- Peptide array signal, raw data, Left [8]: 0.004804
- Peptide array signal, raw data, Rigt [8]: 0.01167
- binding to Brd4 BD1 (in words) ([9]; ITC): no or only modest binding and inhibition
- antifungal activity against mutant strains in which either BD1 or BD2 was inactivated (in words) [10]: little antifungal activity; also recorded: did not significantly inhibit growth
- activity against human BDs in BROMOscan (in words) [11]: no significant inhibition was detected; also recorded: no significant activity; also recorded: do not significantly inhibit
- inhibition at 10 µM [12]: ~65%
- inhibition in BROMOscan (in words) [13]: hardly inhibits
- Peptide array signal, raw data, Left [14]: 0
- Peptide array signal, raw data, Right [14]: 0.001715
- Peptide array signal, raw data, Left [15]: 0
- Peptide array signal, raw data, Right [15]: 0.001456

Compound: Cc1ccc(Nc2c(-c3ccc(O)cc3)nc3c(C)cccn23)cc1 [Compound 2]
- binding to SMARCA2 BD (in words) [1]: no detectable binding; also recorded: no significant inhibition
- binding to SMARCA4 BD (in words) [2]: no detectable binding; also recorded: no significant inhibition
- IC50 [4]: 1.1 µM
- Kd [5]: 2.1 µM
- N (stoichiometry) ([5]; ITC, 25 °C): 1.21 ± 0.11
- TΔS ([5]; ITC, 25 °C): 2.01 kcal/mol
- ΔG ([5]; ITC, 25 °C): -7.741 kcal/mol
- ΔH ([5]; ITC, 25 °C): -5.74 ± 0.96 kcal/mol
- Peptide array signal, Normalized (0 to 100%), Average [6]: 0.0725%
- Peptide array signal, raw data, Left [6]: 0.0005345
- Peptide array signal, raw data, Rigt [6]: 0.004276
- Peptide array signal, Normalized (0 to 100%), Average [8]: 0.37%
- Peptide array signal, raw data, Left [8]: 0.005491
- Peptide array signal, raw data, Rigt [8]: 0.01304
- antifungal activity against mutant strains in which either BD1 or BD2 was inactivated (in words) [10]: little antifungal activity
- activity against human BDs in BROMOscan (in words) [11]: no significant inhibition was detected; also recorded: do not significantly inhibit
- IC50 [16]: ≥ 40 µM
- Peptide array signal, raw data, Left [14]: 0.003429
- Peptide array signal, raw data, Right [14]: 0.002743
- Peptide array signal, raw data, Left [15]: 0.0004854
- Peptide array signal, raw data, Right [15]: 0.002427
- IC50 ([17]; HTRF): ≥ 40 µM

Compound: CN1C(=O)c2ccccc2Sc2cc(NC(=O)C3CCCO3)ccc21 (stereo not shown) [Compound 3]
- Kd [3]: 4.8 ± 0.2 µM
- N (stoichiometry) ([3]; ITC, 25 °C): 1.05 ± 0.03
- TΔS ([3]; ITC, 25 °C): 0.44 kcal/mol
- ΔG ([3]; ITC, 25 °C): -7.251 kcal/mol
- ΔH ([3]; ITC, 25 °C): -6.81 ± 0.12 kcal/mol
- Peptide array signal, Normalized (0 to 100%), Average [6]: 0.0363%
- Peptide array signal, raw data, Left [6]: 0.001069
- Peptide array signal, raw data, Rigt [6]: 0.003207
- IC50 [7]: 12.5 ± 0.8 µM
- Peptide array signal, Normalized (0 to 100%), Average [8]: 0.296%
- Peptide array signal, raw data, Left [8]: 0.005491
- Peptide array signal, raw data, Rigt [8]: 0.01167
- Kd [9]: 13.4 ± 1.7 µM
- N (stoichiometry) ([9]; ITC, 25 °C): 0.92 ± 0.03
- TΔS ([9]; ITC, 25 °C): 3.107 kcal/mol
- ΔG ([9]; ITC, 25 °C): -6.644 kcal/mol
- ΔH ([9]; ITC, 25 °C): -3.54 ± 0.454 kcal/mol
- EC50 ([10]; Candida albicans, read-out: cellular EC50): 35 ± 7 µM
- growth of strains expressing WT Bdf1 or Bdf1 inactivated in BD1 (functional BD2) (in words) ([10]; liquid culture, Met/Cys or Dox): little effect; also recorded: insensitive
- growth of strains inactivated in BD2 (bdf1-bd2Δ, bdf1-Y425F) (in words) ([10]; liquid culture, Met/Cys or Dox): significantly inhibited; also recorded: compromises the in vitro growth; also recorded: sensitive
- Peptide array signal, raw data, Left [14]: 0.004458
- Peptide array signal, raw data, Right [14]: 0.001715
- Peptide array signal, raw data, Left [15]: 0.001942
- Peptide array signal, raw data, Right [15]: 0.002427
- inhibition of CaBdf1 BD1 (in words) ([17]; HTRF): low-micromolar affinity
- IC50 for Brd4 BD1 relative to IC50 for CaBdf1 BD1 ([17]; HTRF IC50 ratio): 7 fold
- IC50 ([17]; HTRF): 1.7 ± 0.6 µM

Source: paper PMC5454392, “Selective BET bromodomain inhibition as an antifungal therapeutic strategy” (Nature Communications, 2017)
